“And” between values parts separate entries of the source, which are not always exact repeats. Equal values may be shown once.
Columns and labels:
P2X7 = target: T1, P2X7 (Homo sapiens, UniProt Q99572); test: YO-PRO-1 plate assay of P2X7 agonists with astrocytoma cell line 1321N1; assay type: cell-based; settings: for YO-PRO-1 fluorescence (485/20, 528/20), single well: 5 × 10^4 1321N1 cells; for YO-PRO-1 fluorescence, average of duplicate wells: 1321N1 cells;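 on all read-outs here: dye uptake read after 20 min agonist exposure with YO-PRO-1 present, unbound dye removed by washing before reading in a fluorescence plate reader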
T1 construct: host or cells: astrocytoma cell line (the earlier reading names it 1321N1)
T1 sequence (Q99572 1-595): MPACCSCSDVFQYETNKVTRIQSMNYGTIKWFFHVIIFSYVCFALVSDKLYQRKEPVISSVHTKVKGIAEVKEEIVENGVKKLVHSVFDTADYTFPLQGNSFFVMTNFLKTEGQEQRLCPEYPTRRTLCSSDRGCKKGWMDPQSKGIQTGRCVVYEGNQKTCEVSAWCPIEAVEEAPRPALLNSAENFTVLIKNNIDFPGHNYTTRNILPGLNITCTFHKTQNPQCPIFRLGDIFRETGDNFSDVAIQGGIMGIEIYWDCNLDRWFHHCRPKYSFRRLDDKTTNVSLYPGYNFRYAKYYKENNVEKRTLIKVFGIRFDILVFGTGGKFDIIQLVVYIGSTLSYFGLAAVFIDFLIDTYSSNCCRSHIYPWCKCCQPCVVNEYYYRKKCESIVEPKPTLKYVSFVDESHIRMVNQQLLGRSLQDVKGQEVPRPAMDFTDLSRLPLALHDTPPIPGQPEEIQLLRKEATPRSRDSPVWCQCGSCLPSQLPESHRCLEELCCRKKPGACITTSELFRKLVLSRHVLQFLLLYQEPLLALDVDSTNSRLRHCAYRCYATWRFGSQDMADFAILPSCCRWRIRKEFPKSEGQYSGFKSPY

[1] = tested on: animal model of severe sepsis; settings: co-administration, mice; cited from earlier work

Compound: CSc1nc(N)c2ncn([C@@H]3O[C@H](COP(=O)(O)OP(=O)(O)OP(=O)(O)O)[C@@H](O)[C@H]3O)c2n1 [2MeSATP, 2-methylthio-adenosine 5′-triphosphate]
- YO-PRO-1 fluorescence (485/20, 528/20), single well (P2X7; agent 3 μM + YOPRO): 109 and 102
- YO-PRO-1 fluorescence (485/20, 528/20), single well (P2X7; agent 10 μM + YOPRO): 144
- YO-PRO-1 fluorescence (485/20, 528/20), single well (P2X7; agent 30 μM + YOPRO): 157 and 154
- YO-PRO-1 fluorescence (485/20, 528/20), single well (P2X7; agent 100 μM + YOPRO): 155 and 170
- YO-PRO-1 fluorescence (485/20, 528/20), single well (P2X7; agent 300 μM + YOPRO): 168 and 162
- YO-PRO-1 fluorescence (485/20, 528/20), single well (P2X7; agent 1 mM + YOPRO): 161 and 164
- YO-PRO-1 fluorescence, average of duplicate wells (P2X7; 1 uM, agent + YOPRO): 105.5
- YO-PRO-1 fluorescence, average of duplicate wells (P2X7; 3 uM, agent + YOPRO): 144
- LPS-induced serum levels of TNF-alpha and IL-1 [1]: reductions in LPS-induced serum levels of TNF-alpha and IL-1
- protection from endotoxic death [1]: protects mice from endotoxic death

Compound: CN([C@@H](Cc1ccc(OS(=O)(=O)c2cccc3cnccc23)cc1)C(=O)N1CCN(c2ccccc2)CC1)S(=O)(=O)c1cccc2cnccc12 [KN62]
- YO-PRO-1 fluorescence (485/20, 528/20), single well (P2X7; 1 mM ATP + KN62 1 μM + YOPRO): 185 and 177
- YO-PRO-1 fluorescence (485/20, 528/20), single well (P2X7; 1 mM ATP + KN62 3 μM + YOPRO): 181 and 176
- YO-PRO-1 fluorescence (485/20, 528/20), single well (P2X7; 1 mM ATP + KN62 10 μM + YOPRO): 159
- YO-PRO-1 fluorescence (485/20, 528/20), single well (P2X7; 1 mM ATP + KN62 30 μM + YOPRO): 155 and 153
- YO-PRO-1 fluorescence (485/20, 528/20), single well (P2X7; 1 mM ATP + KN62 100 μM + YOPRO): 148
- YO-PRO-1 fluorescence (485/20, 528/20), single well (P2X7; 1 mM ATP + KN62 300 μM + YOPRO): 152 and 165
- YO-PRO-1 fluorescence, average of duplicate wells (P2X7; 1 mM ATP + KN62 1 uM + YOPRO): 181
- YO-PRO-1 fluorescence, average of duplicate wells (P2X7; 1 mM ATP + KN62 3 uM + YOPRO): 178.5

Compound: O=c1ccn([C@@H]2O[C@H](COP(=O)(O)OP(=O)(O)OP(=O)(O)O)[C@@H](O)[C@H]2O)c(=O)[nH]1 [UTP]
- YO-PRO-1 fluorescence (485/20, 528/20), single well (P2X7; agent 300 μM + YOPRO): 72 and 73

Compound: Nc1ncnc2c1ncn2[C@@H]1O[C@H](COP(=O)(O)OP(=O)(O)NP(=O)(O)O)[C@@H](O)[C@H]1O [AMPPNP, adenosine 5′(beta,gamma-imido)triphosphate]
- YO-PRO-1 fluorescence (485/20, 528/20), single well (P2X7; agent 300 μM + YOPRO): 75 and 86

Compound: Nc1ncnc2c1ncn2[C@@H]1O[C@H](COP(=O)(O)CP(=O)(O)OP(=O)(O)O)[C@@H](O)[C@H]1O [ab-CH2-ATP]
- YO-PRO-1 fluorescence (485/20, 528/20), single well (P2X7; agent 1 μM + YOPRO): 68 and 67
- YO-PRO-1 fluorescence (485/20, 528/20), single well (P2X7; agent 3 μM + YOPRO): 68 and 69
- YO-PRO-1 fluorescence (485/20, 528/20), single well (P2X7; agent 10 μM + YOPRO): 74
- YO-PRO-1 fluorescence (485/20, 528/20), single well (P2X7; agent 30 μM + YOPRO): 74 and 78
- YO-PRO-1 fluorescence (485/20, 528/20), single well (P2X7; agent 100 μM + YOPRO): 89 and 83
- YO-PRO-1 fluorescence (485/20, 528/20), single well (P2X7; agent 300 μM + YOPRO): 101 and 116
- YO-PRO-1 fluorescence, average of duplicate wells (P2X7; 1 uM, agent + YOPRO): 67.5
- YO-PRO-1 fluorescence, average of duplicate wells (P2X7; 3 uM, agent + YOPRO): 68.5

Reference: patent publication US7960131B2, “Functional genomic pore assay for mixed cell populations” (Wisconsin Alumni Research Foundation, priority 2003, dated 2011)
